These results are taken from US5276058A, “3,4-dihydroxychalcone derivatives” (Nippon Hypox Laboratories Incorporated, priority 1993, dated 1994).

In test [1] the test system is ear swelling induced by arachidonic acid. The experiment in a line: topical anti-inflammatory activity test (arachidonic acid-induced ear swelling). The conditions noted are these: Mus musculus, 1 hour before 1 mg arachidonic acid, read-out: Ratio of inhibition of ear swelling induced by arachidonic acid; for inhibition in vivo at 30 µg/ear: 30 μg/ear; for inhibition in vivo at 100 µg/ear: 100 μg/ear; for inhibition in vivo at 10 µg/ear: 10 μg/ear. Type of test: in vivo, male ICR mice. The method, then:
The 3,4-dihydroxychalcone derivatives shown in Table 9, as test compounds, were subjected to the following topical anti-inflammatory activity test.
Acetone solutions were prepared from the test compounds. Then, the acetone solution were applied to the right ears of male ICR mice such that the dose of each test compound was 10 μg/ear, 30 μg/ear of 100 μg/ear. One hour after the application, 1 mg of arachidonic acid was applied to each right ear to cause ear swelling.
One hour after the application of the arachidonic acid, the mice were sacrificed by vertebral cervical dislocation, and the right and left ears were taken and separately weighed. The weight of the right ear to which the arachidonic acid had been applied was divided by the weight of the non-treated left ear to obtain a swelling ratio.
The effect of each test compound was shown in the following manner. The relative values of the swelling ratios of individual mice were calculated on an assumption that the average value of the swelling ratios of the solvent control group was taken as 100, and amounts of their decreases were expressed by percentages (inhibition ratios).

Another test deals with T1, cyclooxygenase (Ovis aries, UniProt P05979).
T1 construct: containing sheep seminal vesicle; from tissue; host or cells: sheep seminal vesicle
T1 sequence (P05979 25-600): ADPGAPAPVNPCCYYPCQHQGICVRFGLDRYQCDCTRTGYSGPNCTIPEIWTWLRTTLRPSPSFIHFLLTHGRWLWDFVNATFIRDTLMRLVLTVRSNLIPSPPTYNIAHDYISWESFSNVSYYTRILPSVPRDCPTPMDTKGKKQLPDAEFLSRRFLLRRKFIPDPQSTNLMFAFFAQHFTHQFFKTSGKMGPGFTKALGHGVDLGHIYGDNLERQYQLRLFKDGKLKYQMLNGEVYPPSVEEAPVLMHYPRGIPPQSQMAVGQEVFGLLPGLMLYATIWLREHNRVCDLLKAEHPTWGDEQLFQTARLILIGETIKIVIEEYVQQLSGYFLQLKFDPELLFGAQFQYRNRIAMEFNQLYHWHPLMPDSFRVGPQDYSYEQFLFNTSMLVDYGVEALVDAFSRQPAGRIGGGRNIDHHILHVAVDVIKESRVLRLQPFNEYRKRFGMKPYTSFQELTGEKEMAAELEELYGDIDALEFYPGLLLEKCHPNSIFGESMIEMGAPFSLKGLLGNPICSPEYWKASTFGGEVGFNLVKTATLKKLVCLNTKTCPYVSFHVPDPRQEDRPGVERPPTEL
Put plainly: cyclooxygenase inhibiting activity test. Type of test: biochemical. The conditions noted are these: sheep seminal vesicle, pH 7.4, prostaglandin E2 formation. The method, then: A 50 mM phosphoric acid buffer solution (pH 7.4) containing sheep seminal vesicle, 2 mM of glutathione, 0.6 mM of epinephrine and 80 μM of EDTA-2Na preheated at 37° C. for 2 minutes, and then ^14 C-arachidonic acid was added to the reaction mixture. The mixture was heated for 10 minutes to form prostaglandin E2, and the radiation activity of the formed prostaglandin E2 was taken as cyclooxygenase activity. The 3,4-dihydroxychalcone derivatives shown in Table 10 were selected as test compounds. The cyclooxygenase inhibiting activity of each test compound was evaluated as follows. Each test compound was independently added to the above phosphoric acid buffer solution, and the radiation activity of the formed prostaglandin E2 was measured in the same manner as above. The inhibition ratio of each test compound was determined in comparison with that of the control group, and the value of IC50 was calculated by a conventional method.

The subject of test [2] is enzymes which are to cause inflammation. The following applies: in vitro; PROSTAGLADINSS (1985, 30 (3) 357); cited from earlier work.
The conditions of test [3]: Food Chemistry (1983, 12) 205-212; cited from earlier work.
The target in another test is T2, 5-lipoxygenase (Rattus norvegicus, UniProt P12527).
T2 construct: endogenous in cells; host or cells: RBL-1 cell homogenate
T2 sequence (P12527 1-673): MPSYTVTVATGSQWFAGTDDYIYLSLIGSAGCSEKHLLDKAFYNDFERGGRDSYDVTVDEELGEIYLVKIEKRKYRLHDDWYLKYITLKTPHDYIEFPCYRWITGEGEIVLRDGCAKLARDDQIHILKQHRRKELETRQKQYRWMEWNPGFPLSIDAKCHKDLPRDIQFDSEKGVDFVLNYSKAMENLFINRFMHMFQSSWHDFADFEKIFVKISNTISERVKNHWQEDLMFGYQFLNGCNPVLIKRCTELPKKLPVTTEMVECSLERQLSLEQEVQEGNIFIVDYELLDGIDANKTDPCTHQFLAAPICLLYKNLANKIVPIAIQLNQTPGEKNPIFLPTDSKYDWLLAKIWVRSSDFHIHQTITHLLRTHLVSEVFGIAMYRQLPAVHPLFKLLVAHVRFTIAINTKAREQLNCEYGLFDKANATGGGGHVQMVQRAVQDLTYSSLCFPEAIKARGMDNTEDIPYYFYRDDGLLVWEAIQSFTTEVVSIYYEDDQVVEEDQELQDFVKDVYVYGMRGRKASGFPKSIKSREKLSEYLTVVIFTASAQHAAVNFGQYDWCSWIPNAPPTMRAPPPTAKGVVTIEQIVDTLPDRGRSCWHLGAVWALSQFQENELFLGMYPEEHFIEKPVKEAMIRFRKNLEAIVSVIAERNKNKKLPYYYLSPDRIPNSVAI
The experiment in a line: 5-lipoxygenase inhibiting activity test (RBL-1 cell homogenate). It is filed as biochemical. The following applies: pH 7.4, 37° C., 5-HETE formation. The method, then: RBL-1 cell homogenate was suspended in a 50 mM phosphoric acid buffer solution (pH 7.4) containing 2 mM of CaCl2, 0.25 mM of sucrose, 1 mM of EDTA-2Na and glutathione, and the mixture was heated to 37° C. Arachidonic acid was added to the mixture to form 5-HETE (5-hydroxyeicosatetraenonic acid), and the 5-HETE was measured for an amount by a high-performance liquid chromatography.
The 3,4-dihydroxychalcone derivatives shown in Table 11 were selected as test compounds. The 5-lipoxygenase inhibiting activity of each test compound was evaluated as follows. Each test compound was independently added to the above phosphoric acid buffer solution, and the 5-HETE amount was measured in the same manner as above. The inhibition ratio of each test compound was determined in comparison with that of the control group, and the value of IC50 was calculated by a conventional method.

The structures appear in SMILES notation. pIC50: −log10 of the molar value.

With `COc1cc(C(=O)C=Cc2ccc(O)c(O)c2)ccc1O` [Example 28], the inhibition in vivo at 30 µg/ear in test [1] stood at 47%.
As a reminder, the pIC50 is the IC50 on a negative log10 scale, so that one unit is a factor of ten. Read a high pIC50 as a low IC50. On cyclooxygenase, `COc1ccc(C(=O)C=Cc2ccc(O)c(O)c2)cc1OC` [Example 29] showed a pIC50 of 3.08. Also, the inhibition in vivo at 30 µg/ear in test [1] turned out to be 38%.
Take `O=C(/C=C/c1ccc(O)c(O)c1)c1ccc(O)cc1` [4',3,4-trihydroxychalcone]: the “inhibiting activity against enzymes which are to cause inflammation” value (“inhibiting activity” below) in test [2] is reported as “inhibiting activity against enzymes which are to cause inflammation”.
Turning to `CCCCOc1ccc(O)c(C(=O)C=Cc2ccc(O)c(O)c2)c1` [Example 9], the inhibition in vivo at 30 µg/ear in test [1] is 31%.
`CCOc1ccc(OC)c(C(=O)C=Cc2ccc(O)c(O)c2)c1` [Example 13] gave a negative logarithm of the IC50 (pIC50) on cyclooxygenase of 4.59. In test [1], the inhibition in vivo at 30 µg/ear was found to be 13%.
Molecule `COc1ccc(C)cc1C(=O)C=Cc1ccc(O)c(O)c1` [Example 11] gave a pIC50 against cyclooxygenase of 4.53. Also, in test [1], the inhibition in vivo at 30 µg/ear was 32%.
`O=C(C=Cc1ccc(O)c(O)c1)c1cc(O)ccc1O` [Example 3] had a pIC50 against cyclooxygenase of 3.77. Besides, the inhibition in vivo at 30 µg/ear in test [1] was 39%.
On to `COc1ccccc1C(=O)C=Cc1ccc(O)c(O)c1` [Example 19], for which the pIC50 at cyclooxygenase is 4.45. In addition, in test [1], the inhibition in vivo at 30 µg/ear was determined as 42%.
`Cc1cccc(C(=O)C=Cc2ccc(O)c(O)c2)c1` [Example 17] showed a negative-log IC50 (pIC50) against cyclooxygenase of 4.15. Also, in test [1], the inhibition in vivo at 30 µg/ear was 28% and the inhibition in vivo at 100 µg/ear stood at 38%.
`CN(C)c1cccc(C(=O)C=Cc2ccc(O)c(O)c2)c1` [Example 23]: on cyclooxygenase, the pIC50 is 4.39. In addition, the inhibition in vivo at 30 µg/ear in test [1] turned out to be 19%.
For the molecule `O=C(/C=C/c1ccc(O)c(O)c1)c1ccccc1` [3,4-dihydroxychalcone], in test [2], the “inhibiting activity” value is given as “inhibiting activity against enzymes which are to cause inflammation”. In test [3], the “activity to inhibit the oxidation of edible oils” value is recorded as “activity to inhibit the oxidation of edible oils”.
Turning to `COc1ccc(C(=O)C=Cc2ccc(O)c(O)c2)c(O)c1` [Example 4], on cyclooxygenase, the negative-log IC50 (pIC50) is 4.19. Further, the inhibition in vivo at 30 µg/ear in test [1] stood at 35%.
For the molecule `CC(C)Oc1ccc(O)c(C(=O)C=Cc2ccc(O)c(O)c2)c1` [Example 8], the inhibition in vivo at 30 µg/ear in test [1] was found to be 67%.
Turning to `COc1ccc(C(=O)C=Cc2ccc(O)c(O)c2)c(OC)c1` [Example 2], the pIC50 on cyclooxygenase is 3.81. Besides, the inhibition in vivo at 30 µg/ear in test [1] was determined as 56%.
In turn, `CCOc1ccc(OCC)c(C(=O)C=Cc2ccc(O)c(O)c2)c1` [Example 16] showed a negative logarithm of the IC50 (pIC50) on cyclooxygenase of 4.61. Besides, the inhibition in vivo at 10 µg/ear in test [1] is 7%.
Regarding `CCOc1ccc(OC)cc1C(=O)C=Cc1ccc(O)c(O)c1` [Example 15], the pIC50 at cyclooxygenase is 5.49. The inhibition in vivo at 30 µg/ear in test [1] was determined as 7.4%.
For `Cc1ccc(C)c(C(=O)C=Cc2ccc(O)c(O)c2)c1` [Example 26], on cyclooxygenase, the negative logarithm of the IC50 (pIC50) is 4.36. In addition, in test [1], the inhibition in vivo at 30 µg/ear amounted to 58%.
Turning to `CC(C)Oc1ccc(C(=O)C=Cc2ccc(O)c(O)c2)cc1` [Example 22], the inhibition in vivo at 30 µg/ear in test [1] was 5%.
Still for that read-out and setting: the same measure for `COc1cc(C(=O)C=Cc2ccc(O)c(O)c2)cc(OC)c1OC` [Example 30]: 65%.
The molecule `Cc1ccc(C(=O)C=Cc2ccc(O)c(O)c2)c(C)c1` [Example 25] showed a negative-log IC50 (pIC50) against cyclooxygenase of 4.39. The inhibition in vivo at 30 µg/ear in test [1] came to 43%.
In the case of `CN(C)c1ccc(C(=O)C=Cc2ccc(O)c(O)c2)cc1` [Example 24], the negative-log IC50 (pIC50) on cyclooxygenase was 3.09. The inhibition in vivo at 30 µg/ear in test [1] was 21%.
As for `O=C(/C=C/c1ccc(O)c(O)c1)c1ccc(O)cc1O` [2',4',3,4-tetrahydroxychalcone], the “inhibiting activity” value in test [2] is given as “inhibiting activity against enzymes which are to cause inflammation”.
Turning to `CC(C)c1ccc(O)c(C(=O)C=Cc2ccc(O)c(O)c2)c1` [Example 7], the negative logarithm of the IC50 (pIC50) on cyclooxygenase was 4.43. In addition, in test [1], the inhibition in vivo at 30 µg/ear was 9%.
For `O=C(/C=C/c1ccc(O)c(O)c1)c1ccccc1O` [2',3,4-trihydroxychalcone], the “inhibiting activity” value in test [2] is reported as “inhibiting activity against enzymes which are to cause inflammation”.
Turning to `COc1ccc(OC(C)C)cc1C(=O)C=Cc1ccc(O)c(O)c1` [Example 14], the pIC50 at cyclooxygenase was 4.22. The inhibition in vivo at 30 µg/ear in test [1] was determined as 33%.
Taken in the same sequence, the figures for `Cc1ccc(C(=O)C=Cc2ccc(O)c(O)c2)cc1` [Example 18] were 3.68 and 27%.
On to `COc1ccc(C(=O)C=Cc2ccc(O)c(O)c2)cc1` [Example 21], for which the pIC50 against cyclooxygenase is 3.31. The inhibition in vivo at 10 µg/ear in test [1] worked out at 45%.
`Cc1ccc(O)c(C(=O)C=Cc2ccc(O)c(O)c2)c1` [Example 5] gave a pIC50 on cyclooxygenase of 3.92. Also, in test [1], the inhibition in vivo at 10 µg/ear is 31% and the inhibition in vivo at 30 µg/ear is 52%.
On to `COc1cccc(OC)c1C(=O)C=Cc1ccc(O)c(O)c1` [Example 12], for which the inhibition in vivo at 30 µg/ear in test [1] was determined as 8%.
Consider `COc1ccc(OC)c(C(=O)/C=C/c2ccc(O)c(O)c2)c1` [Example 1, 2',5'-dimethoxy-3,4-dihydroxychalcone], for which the pIC50 is 8.11 at 5-lipoxygenase and 4.77 on cyclooxygenase. Also, in test [1], the inhibition in vivo at 30 µg/ear stood at 77%.
For `COc1ccc(O)c(C(=O)C=Cc2ccc(O)c(O)c2)c1` [Example 6], the pIC50 on cyclooxygenase was 4.38. Further, in test [1], the inhibition in vivo at 10 µg/ear came to 7.6%, the inhibition in vivo at 30 µg/ear was 38% and the inhibition in vivo at 100 µg/ear stood at 43%.
`COc1cccc(C(=O)C=Cc2ccc(O)c(O)c2)c1` [Example 20]: the pIC50 against cyclooxygenase was 4.82. In addition, in test [1], the inhibition in vivo at 30 µg/ear stood at 58%.
On cyclooxygenase, `CCOc1ccc(O)c(C(=O)C=Cc2ccc(O)c(O)c2)c1` [Example 10] had a pIC50 of 3.89. In addition, the inhibition in vivo at 30 µg/ear in test [1] worked out at 43%.
Take `Cc1cc(C)c(C(=O)C=Cc2ccc(O)c(O)c2)c(C)c1` [Example 27]: the negative logarithm of the IC50 (pIC50) at cyclooxygenase was 3.56. In addition, the inhibition in vivo at 30 µg/ear in test [1] was 47%.
